Results published in the NIST ThermoML archive (doi:10.1016/j.tca.2004.11.015).

Assay: xn = mol fraction of the nth substance listed
Details: 101.33 kPa, Liquid, Vibrating tube method

NCCO [2-aminoethan-1-ol] + CO
mass density [kg/m3]
Details | 318.15 K | 323.15 K | 328.15 K | 333.15 K | 338.15 K | 343.15 K | 348.15 K | 353.15 K
x1 = 0.012 | – | 768.02 | 763.16 | 758.24 | – | – | – | –
x1 = 0.031 | – | 776.31 | 771.48 | 766.6 | – | – | – | –
x1 = 0.05 | – | 784.19 | 779.4 | 774.56 | 769.67 | 764.72 | 759.71 | 754.62
x1 = 0.1 | – | 804.01 | 799.31 | 794.56 | 789.76 | 784.91 | 780 | 775.02
x1 = 0.15 | – | 822.17 | 817.54 | 812.87 | 808.15 | 803.39 | 798.56 | 793.68
x1 = 0.2002 | – | 839.11 | 834.54 | 829.94 | 825.28 | 820.58 | 815.83 | 811.02
x1 = 0.2501 | – | 854.48 | 849.96 | 845.4 | 840.8 | 836.17 | 831.49 | 826.76
x1 = 0.2974 | 872.55 | 868.11 | 863.65 | 859.14 | 854.6 | 850 | 845.36 | 840.69
x1 = 0.3502 | 886.63 | 882.25 | 877.83 | 873.37 | 868.88 | 864.35 | 859.77 | 855.14
x1 = 0.4001 | 898.67 | 894.33 | 889.95 | 885.53 | 881.08 | 876.6 | 872.07 | 867.5
x1 = 0.4427 | 908.45 | 904.14 | 899.79 | 895.41 | 890.99 | 886.55 | 882.06 | 877.53
x1 = 0.4502 | 910.28 | 905.97 | 901.63 | 897.26 | 892.86 | 888.42 | 883.94 | 879.42
x1 = 0.5002 | 920.74 | 916.46 | 912.15 | 907.81 | 903.44 | 899.04 | 894.6 | 890.11
x1 = 0.5501 | 930.55 | 926.3 | 922.03 | 917.72 | 913.38 | 909.01 | 904.62 | 900.18
x1 = 0.6001 | 939.84 | 935.62 | 931.37 | 927.1 | 922.8 | 918.47 | 914.1 | 909.7
x1 = 0.6501 | 948.51 | 944.31 | 940.1 | 935.85 | 931.59 | 927.29 | 922.96 | 918.6
x1 = 0.7005 | 956.89 | 952.72 | 948.53 | 944.32 | 940.08 | 935.81 | 931.52 | 927.19
x1 = 0.7479 | 963.92 | 959.78 | 955.62 | 951.43 | 947.22 | 942.98 | 938.72 | 934.42
x1 = 0.8002 | 971.82 | 967.71 | 963.57 | 959.42 | 955.24 | 951.03 | 946.8 | 942.54
x1 = 0.8502 | 978.32 | 974.23 | 970.12 | 965.99 | 961.84 | 957.66 | 953.46 | 949.23
x1 = 0.8967 | 984.55 | 980.48 | 976.39 | 972.29 | 968.16 | 964.01 | 959.83 | 955.62
x1 = 0.9501 | 990.85 | 986.81 | 982.75 | 978.67 | 974.57 | 970.45 | 966.3 | 962.12
